Test results taken from patent US6503545B1 (Brandeis University, priority 1999, dated 2003).
Where two headings read alike, the source gives them in different places.

Columns and labels:
[1] = 400 IU daily soft gel capsule, six years, 601 subjects; cited from earlier work
[2] = cited from earlier work; for Vit. E/Chol. ratio Incr.: above basal fasting ratio
[3] = per 1 mg, National Formulary; cited from earlier work
LDL = conditions: gel-capsule, ex vivo lag time; cited from earlier work
[4] = 150 mg natural and 150 mg synthetic daily in soft gelatin capsule, ten days; cited from earlier work
[5] = cited from earlier work
[6] = in vivo; cited from earlier work
[7] = supplements greater than 100 IU per day, 6 years, elderly; cited from earlier work
[8] = Loss of vitamin E during milk processing (pasteurization); type: physicochemical; conditions: heating, e.g. pasteurization
Procedure: In addition, as Applicant has described, normal processing of milk and other food products commonly includes heating, e.g., pasteurization.
Preparation of Vitamin E-Fortified Milks: Pasteurized non-fat (skim) milk containing 2,000 I.U. per quart vitamin A palmitate and 400 I.U. per quart vitamin D2 was prepared by H.P. Hood, Inc. (Chelsea Mass.). […] Fortified cream or oil was then blended with non-fortified skim milk to make three vitamin E-fortified milks containing fat (see below). […] Milk processing losses of vitamin E were measured and were compensated, by including an excess of vitamin E in the each milk formulation equal to the measured processing loss. Four milks were formulated as follows: […]
Preparation of Vitamin E-Fortified Milks: Preparation of milks, and the packaging and storage of milks by H.P. Hood, Inc. (Chelsea Mass.) were carried out as described for vitamin E-fortified milks in the first clinical study (see milk #3), except that the new milk (milk #21) was fortified with only 15 IU of all-rac-α-tocopherol acetate per serving. A portion of the milk batch was prepared without vitamins A and D (milk #20).

[9] = ingestion of 1200 IU per day; cited from earlier work
[10] = Stability of vitamin E in fortified milks and orange juice during refrigerated storage; type: physicochemical; conditions: 2-3 weeks in refrigerated milk
Source text: The stability of all-rac E, oil was also monitored in regular 1% milkfat-containing milk (abbreviated “regular milk”). […] Although the starting levels of vitamin E were not identical in the beverages studied, all products were stored identically (see above) up to the time of the vitamin assay. Since the nominal shelf-life for milk is two weeks, and for refrigerated orange juice is four weeks, comparisons of vitamin E losses were made after three weeks storage.

CC(=O)Oc1c(C)c(C)c2c(c1C)CCC(C)(CCCC(C)CCCC(C)CCCC(C)C)O2 (racemic) [all-rac-α-tocopherol acetate]
average increase in plasma vitamin E [1]: 83%
Plasma Vit E Increase ([2]; capsules 25 IU/day, above basal fasting level): 19%
Vit. E/Chol. ratio Incr. ([2]; capsules 100 IU/day): 35%
Vit. E/Chol. ratio Incr. ([2]; capsules 200 IU/day): 65%
Vit. E/Chol. ratio Incr. ([2]; capsules 400 IU/day): 115%
specific activity (IU per milligram) [3]: 1.00 IU

Cc1c(C)c2c(c(C)c1O)CCC(C)(CCCC(C)CCCC(C)CCCC(C)C)O2 (racemic) [all-rac-α-tocopherol]
minimum dose which significantly decreases the susceptibility of LDL to oxidation (LDL): 400 IU/per day
specific activity (IU per milligram) [3]: 1.10 IU

CC(=O)Oc1c(C)c(C)c2c(c1C)CC[C@@](C)(CCC[C@H](C)CCC[C@H](C)CCCC(C)C)O2 [RRR-α-tocopherol acetate]
competitive bioavailability in plasma versus all-rac-α-tocopherol acetate [4]: up to two-fold greater
specific activity (IU per milligram) [3]: 1.36 IU

Cc1c(C)c2c(c(C)c1O)CC[C@@](C)(CCC[C@H](C)CCC[C@H](C)CCCC(C)C)O2 [RRR-α-tocopherol]
plasma vitamin E level, elevated ([5]; 400-800 IU daily dose, basal 34.2 μmol/L): 58 µmol/L
average elevation in the plasma vitamin E level above the basal fasting level ([5]; 400-800 IU daily dose): 70%
reduction of the risk of non-fatal heart attacks ([5]; 400 IU once per day in capsules, patients with coronary atherosclerosis): 77%
specific activity (IU per milligram) [3]: 1.49 IU

Cc1c(C)c2c(c(C)c1O)CC[C@@](C)(CCC[C@H](C)CCC[C@H](C)CCCC(C)C)O2 [α-tocopherol]
supplemented dose excreted in the feces [6]: 80-90%

vitamin E
reduction of CHD mortality [7]: 41-47%
reduction of all-cause mortality [7]: 27-34%
reduction of cancer mortality [7]: 22-23%
loss of vitamin E associated with processing, generally [8]: 20-25%
loss of vitamin E associated with processing, typically [8]: 10-30%
adverse effects [9]: no adverse effects have been observed
shelf-life loss of vitamin E [10]: about 15%
